Measured values reported in patent US8568699B2, “Soft anticholinergic zwitterions” (priority 2005, dated 2013).
Counter-ions that a name gives are not always drawn. Like-named read-outs stand apart in the source and are kept apart here.

What was measured:
[1] = molecular target: T1, cloned human muscarinic receptor subtype M1 (Homo sapiens, UniProt P11229); test: Receptor binding, N-[3H]-methyl-scopolamine, M1; settings: numbers in parentheses
T1 sequence (P11229 1-460): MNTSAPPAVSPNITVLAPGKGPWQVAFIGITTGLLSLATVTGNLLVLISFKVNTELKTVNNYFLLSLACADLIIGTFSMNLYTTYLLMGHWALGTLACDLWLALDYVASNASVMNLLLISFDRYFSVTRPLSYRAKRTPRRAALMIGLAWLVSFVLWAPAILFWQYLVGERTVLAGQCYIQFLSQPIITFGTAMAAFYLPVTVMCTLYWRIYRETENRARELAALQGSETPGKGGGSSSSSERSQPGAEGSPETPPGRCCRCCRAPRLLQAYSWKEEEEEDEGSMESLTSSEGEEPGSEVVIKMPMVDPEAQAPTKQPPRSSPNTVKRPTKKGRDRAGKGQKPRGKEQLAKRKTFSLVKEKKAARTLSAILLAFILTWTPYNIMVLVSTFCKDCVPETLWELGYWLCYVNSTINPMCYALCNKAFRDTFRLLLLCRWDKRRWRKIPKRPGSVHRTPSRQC

[2] = molecular target: T2, cloned human muscarinic receptor subtype M2 (Homo sapiens, UniProt P08172); test: Receptor binding, N-[3H]-methyl-scopolamine, M2
T2 sequence (P08172 1-466): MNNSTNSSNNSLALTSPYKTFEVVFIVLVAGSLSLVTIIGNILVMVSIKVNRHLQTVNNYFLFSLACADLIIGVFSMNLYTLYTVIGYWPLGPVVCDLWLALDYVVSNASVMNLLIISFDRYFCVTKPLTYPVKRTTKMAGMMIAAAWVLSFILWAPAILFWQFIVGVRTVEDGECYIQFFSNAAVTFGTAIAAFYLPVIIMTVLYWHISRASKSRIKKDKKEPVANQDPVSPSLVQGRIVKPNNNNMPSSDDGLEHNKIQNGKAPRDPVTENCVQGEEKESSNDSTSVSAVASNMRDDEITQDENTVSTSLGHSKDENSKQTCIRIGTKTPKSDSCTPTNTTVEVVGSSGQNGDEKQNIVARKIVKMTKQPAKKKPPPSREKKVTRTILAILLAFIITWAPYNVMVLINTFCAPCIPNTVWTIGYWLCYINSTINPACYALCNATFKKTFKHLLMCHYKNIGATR

[3] = molecular target: T3, cloned human muscarinic receptor subtype M3 (Homo sapiens, UniProt P20309); test: Receptor binding, N-[3H]-methyl-scopolamine, M3; settings: for M3 Hill slope: numbers in parentheses
T3 construct: purchased Applied Cell Science Inc. (Rockville, Md.)

[4] = molecular target: T4, cloned human muscarinic receptor subtype M4 (Homo sapiens, UniProt P08173); test: Receptor binding, N-[3H]-methyl-scopolamine, M4; settings: numbers in parentheses
T4 construct: purchased Applied Cell Science Inc. (Rockville, Md.)
T4 sequence (P08173 1-479): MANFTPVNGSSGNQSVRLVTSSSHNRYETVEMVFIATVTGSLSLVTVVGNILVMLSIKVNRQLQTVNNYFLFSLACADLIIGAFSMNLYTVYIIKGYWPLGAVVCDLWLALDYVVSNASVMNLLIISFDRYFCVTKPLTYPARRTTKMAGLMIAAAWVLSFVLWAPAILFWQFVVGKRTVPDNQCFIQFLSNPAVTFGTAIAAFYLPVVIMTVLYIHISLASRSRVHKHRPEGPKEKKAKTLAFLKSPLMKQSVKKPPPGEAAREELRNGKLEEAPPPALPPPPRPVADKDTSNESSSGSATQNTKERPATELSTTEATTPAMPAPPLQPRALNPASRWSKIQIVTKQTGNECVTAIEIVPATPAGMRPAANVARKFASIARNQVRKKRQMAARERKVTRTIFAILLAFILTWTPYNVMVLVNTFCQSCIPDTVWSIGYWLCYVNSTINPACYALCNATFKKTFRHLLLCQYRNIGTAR

[5] = molecular target: cloned human muscarinic receptors (M1-M4 subtypes); test: Receptor binding, values stated across subtypes M1-M4
[6] = system: electrically stimulated guinea pig tracheal strips; format: cell-based
[7] = system: muscarinic M3 cholinoceptors (guinea pig tracheal rings); format: cell-based
[8] = Table 6, numbers in parentheses
[9] = electrically stimulated guinea pig tracheal strips
[10] = time from washout to 20% recovery of cholinergic responses

T3 sequence (P20309 whole entry): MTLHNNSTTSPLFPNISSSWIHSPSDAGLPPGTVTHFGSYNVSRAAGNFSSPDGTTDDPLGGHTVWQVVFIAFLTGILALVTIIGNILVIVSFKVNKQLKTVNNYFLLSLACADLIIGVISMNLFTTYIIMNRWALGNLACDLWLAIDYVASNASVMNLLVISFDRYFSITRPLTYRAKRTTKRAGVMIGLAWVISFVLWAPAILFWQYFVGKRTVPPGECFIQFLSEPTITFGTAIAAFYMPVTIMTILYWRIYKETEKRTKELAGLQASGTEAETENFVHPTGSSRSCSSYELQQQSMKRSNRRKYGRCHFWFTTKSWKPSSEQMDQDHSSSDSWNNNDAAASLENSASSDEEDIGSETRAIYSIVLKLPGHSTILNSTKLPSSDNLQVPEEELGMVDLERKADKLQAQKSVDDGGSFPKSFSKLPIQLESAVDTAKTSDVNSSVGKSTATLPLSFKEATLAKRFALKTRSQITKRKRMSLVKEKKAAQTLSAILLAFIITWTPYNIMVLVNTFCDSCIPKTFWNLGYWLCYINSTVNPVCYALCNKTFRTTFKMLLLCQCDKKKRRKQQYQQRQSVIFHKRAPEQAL

Compound: CCOC(=O)C[N+]1(C)CC[C@H](OC(=O)[C@](O)(c2ccccc2)C2CCCC2)C1 (mixture of isomers) [Compound (j), (2R,3′S) 3(2-Cyclopentyl-2-phenyl-2-hydroxyacetoxy)-1-(ethoxycarbonylmethyl)-1-methylpyrrolidinium bromide]
- M1 Hill slope ([1]; Table 6): (1.21 ± 0.33)
- M2 Hill slope [2, 8]: (1.27 ± 0.11)
- M3/M2 muscarinic-receptor subtype-selectivity ([3]; M3 affinity relative to M2 affinity): 2.8±0.8 times
- Selectivity M3/M2 (M3/M2 affinity ratio) ([3]; Table 6): 2.8 ± 0.8 times
- M3 Hill slope ([3]; Table 6): (1.33 ± 0.16)
- M4 Hill slope ([4]; Table 6): (1.15 ± 0.03)
- pKi (range over M1-M4) [5]: 8.2-8.7

Compound: C[N+]1(C)CCC(OC(=O)C(O)(c2ccccc2)C2CCCC2)C1 (mixture of isomers) [glycopyrrolate, glycopyrronium bromide]
- M1 Hill slope ([1]; Table 1): (1.37 ± 0.20)
- M1 Hill slope ([1]; Table 6): (1.37 ± 0.20)
- M2 Hill slope ([2]; Table 1, numbers in parentheses): (0.99 ± 0.11)
- M2 Hill slope [2, 8]: (0.99 ± 0.11)
- M3 Hill slope ([3]; Table 1): (1.14 ± 0.25)
- M3 Hill slope ([3]; Table 6): (1.14 ± 0.25)
- M4 Hill slope ([4]; Table 1): (1.02 ± 0.01)
- M4 Hill slope ([4]; Table 6): (1.02 ± 0.01)
- pKi (range over M1-M4) [5]: 8.7-9.9

Compound: CN1[C@@H]2CC[C@H]1C[C@@H](OC(=O)C(CO)c1ccccc1)C2 (stereo partly shown) [Atropine]
- t1/5 offset [6]: 10 min
- t1/5 onset [6]: 2.5 min

Compound: C[N+]1(CC(=O)[O-])[C@@H]2C[C@@H](OC(=O)C(O)(c3cccs3)c3cccs3)C[C@H]1[C@@H]1O[C@@H]12 (stereo partly drawn) [Compound (aa), 6β,7β-epoxy-3β-hydroxy-8-carboxymethyl-8-methyl-1αH,5αH-tropanium, di-2-thienylglycolate inner salt]
- t1/5 onset [6, 9]: 0.9 min
- t1/5 offset [6, 10]: 27 min

Compound: CCOC(=O)C[N+]1(C)[C@@H]2C[C@@H](OC(=O)C(O)(c3cccs3)c3cccs3)C[C@H]1[C@@H]1O[C@@H]12 (stereo partly drawn) [Compound (w), 6β,7β-epoxy-3β-hydroxy-8-ethoxycarbonylmethyl-8-methyl-1αH,5αH-tropanium bromide, di-2-thienylglycolate]
- pA2 ([7]; antagonism against carbachol, isolated guinea pig tracheal rings, four animals): 8.82
- t1/5 onset [6, 9]: 0.6 min
- t1/5 offset [6, 10]: 60 min

Compound: CC(C)[N+]1(C)[C@@H]2CC[C@H]1CC(OC(=O)C(CO)c1ccccc1)C2.[Br-] (stereo partly shown) [Ipratropium Br, ipratropium bromide]
- pA2 [7]: 9.18
- t1/5 onset [6]: 3.0 min

Compound: C[N+]1(C)[C@@H]2C[C@@H](OC(=O)C(O)(c3cccs3)c3cccs3)C[C@H]1[C@@H]1O[C@@H]12 [Tiotropium]
- t1/5 offset [6]: >360 min
- t1/5 onset [6]: 8.0 min

Compound: C[N+]1(C)[C@@H]2C[C@@H](OC(=O)[C@H](CO)c3ccccc3)C[C@H]1[C@@H]1O[C@@H]12 [scopolamine methyl bromide, scopolamine methylbromide]
- M2 Hill slope [2]: (1.02 ± 0.02)
